# Assay results published in patent US7175855B1, “Ziprasidone suspension” (Pfizer Inc., priority 1999, dated 2007).
# Assay: Ability of surfactants to wet ziprasidone HCl monohydrate in water (drug wetting time)
# Format: physicochemical
# Procedure: Different surfactants were tested for their ability to wet ziprasidone HCl monohydrate in water: sodium lauryl sulfate (SLS), MIGLYOL® (registered trademark of Dynamit Nobel Aktiengesellschaft, Germany) Triglyceride (810), and polysorbate-80. In three separate 100 mL volumes of water, each surfactant listed above was added in an amount to make a 1% solution. MIGLYOL® was added in excess due to its low solubility. While stirring at 200 rpm with an overhead stirrer, to each of the three surfactant solutions was added 1.132 g of ziprasidone […] (equivalent to 10 mgA/ml).
structure (smiles),measurement,setting,value
"CCCCCCCCCCCCOS(=O)(=O)[O-].[Na+] [SLS, sodium lauryl sulfate]",observed rate of wetting,"1% surfactant solution in 100 mL water (MIGLYOL in excess), 1.132 g ziprasidone (10 mgA/ml), stirring at 200 rpm",>20 min
same,foaming during wetting (in words),wetting agents tested with ziprasidone hydrochloride in water,caused foaming before adequate wetting could be obtained
